The results in this text go back to patent US20070149535A1, “Protein kinase inhibitors” (ONCALIS AG, priority 2004, published 2007).

What all share (assay): Yeast growth assay, specificity profiling
Common to all, as to format: cell-based

Experiment [1] has as its target T1, EGFR (L858R) (Homo sapiens, UniProt P00533, L858R).
T1 construct: expressed in transfected cells; host or cells: yeast
Further details: key: “−” indicates no growth restoration i.e. no activity against the particular kinase; “+”, “++”, and “+++” indicate activity detected by restoration of growth, classified into three categories of potency; “+”, “++”, and “+++” indicate activity detected by restoration of growth, classified into three categories of potency; “+”, “++”, and “+++” indicate activity detected by restoration of growth, classified into three categories of potency. As to conditions: 7 concentrations between 0.2 and 100 μM. The essentials: (§1)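 Yeast carrying the human RTK are shifted from glucose to galactose medium, inducing kinase expression that suppresses growth; inhibitors restore growth. Compounds are tested at 7 concentrations from 0.2 to 100 μM. Activity is scored −/+/++/+++ from the maximal growth restoration and the concentration at which it is reached.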

In experiment [2] the target is T2, CSF-1R (Homo sapiens, UniProt P07333).
T2 construct: expressed in transfected cells; host or cells: yeast
T2 sequence (P07333 20-972): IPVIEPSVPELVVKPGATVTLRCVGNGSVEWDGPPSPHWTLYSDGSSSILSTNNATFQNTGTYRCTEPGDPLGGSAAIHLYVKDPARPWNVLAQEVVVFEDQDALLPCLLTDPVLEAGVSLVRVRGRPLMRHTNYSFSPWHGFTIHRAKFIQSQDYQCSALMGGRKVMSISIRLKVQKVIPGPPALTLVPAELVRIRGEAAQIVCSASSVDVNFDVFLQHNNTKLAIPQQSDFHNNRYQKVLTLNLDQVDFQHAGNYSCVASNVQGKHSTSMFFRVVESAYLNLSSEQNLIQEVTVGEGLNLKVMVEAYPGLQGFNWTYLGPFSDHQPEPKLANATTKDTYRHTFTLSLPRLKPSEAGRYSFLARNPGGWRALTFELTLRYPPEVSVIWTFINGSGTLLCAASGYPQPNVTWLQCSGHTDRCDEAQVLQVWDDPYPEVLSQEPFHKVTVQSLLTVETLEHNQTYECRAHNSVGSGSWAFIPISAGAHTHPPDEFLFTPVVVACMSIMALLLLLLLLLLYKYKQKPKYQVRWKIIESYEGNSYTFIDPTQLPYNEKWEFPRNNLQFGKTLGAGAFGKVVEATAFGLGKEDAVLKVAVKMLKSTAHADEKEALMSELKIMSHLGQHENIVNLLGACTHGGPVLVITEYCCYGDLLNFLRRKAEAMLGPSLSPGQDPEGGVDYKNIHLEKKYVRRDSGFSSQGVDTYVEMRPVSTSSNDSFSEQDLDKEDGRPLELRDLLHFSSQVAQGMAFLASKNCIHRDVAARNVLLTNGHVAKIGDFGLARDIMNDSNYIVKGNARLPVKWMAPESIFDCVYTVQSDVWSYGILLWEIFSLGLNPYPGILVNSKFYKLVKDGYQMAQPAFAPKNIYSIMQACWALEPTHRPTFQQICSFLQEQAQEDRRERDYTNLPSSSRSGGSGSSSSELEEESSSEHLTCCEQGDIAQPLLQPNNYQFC
Also noted: key: “−” indicates no growth restoration i.e. no activity against the particular kinase; “+”, “++”, and “+++” indicate activity detected by restoration of growth, classified into three categories of potency; “+”, “++”, and “+++” indicate activity detected by restoration of growth, classified into three categories of potency; “+”, “++”, and “+++” indicate activity detected by restoration of growth, classified into three categories of potency. As to conditions: 7 concentrations between 0.2 and 100 μM. The essentials:
as §1

For experiment [3], the target named is T1, EGFR (L858R). Further details: key: (+) in a different yeast background. As to conditions: in a different yeast background. The method, then:
Specificity Profiling: Yeast Growth Assay
The yeast growth assay was performed as described in “Method for the identification and/or validation of receptor tyrosine kinase inhibitors” PCT/CH03/00694 (2004/10/24), section “Modes for Carrying out the Invention, Experiment 1 and Experiment 2.
Briefly, yeast cells carrying plasmids with the RTK of interest were grown in glucose containing medium (repressing expression). The cultures were diluted into galactose containing medium, which induces the expression of the kinase. Expression of the kinase inhibits growth of the yeast cells, which allows for positive selection of kinase inhibitors restoring growth of cells. Compounds were titrated at 7 concentrations between 0.2 and 100 μM.
Specificity profiling of compounds, using the yeast growth assay method described above. “−” indicates no growth restoration i.e. no activity against the particular kinase, “+”, “++”, and “+++” indicate activity detected by restoration of growth, classified into three categories of potency according to the maximal level of growth restoration reached and the concentration at which the maximal growth restoration is reached.
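Wherever EGFR (L858R) growth restoration is given: Parenthesized + marks a result obtained in a different yeast background.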

Consider `Cc1nccn2c(Nc3cccc(Cl)c3)c(-c3ccccc3)nc12` [compound 3, (3-Chloro-phenyl)-(8-methyl-2-phenyl-imidazo[1,2-a]pyrazin-3-yl)-amine], for which the “EGFR (L858R) growth restoration” value in experiment [1] is listed as “+”. Besides, the CSF-1R growth restoration result in experiment [2] is “−”.

As to `COc1cccc(-c2nc3cnccn3c2Nc2cccc(Cl)c2)c1` [compound 7, (3-Chloro-phenyl)-[2-(3-methoxy-phenyl)-imidazo[1,2-a]pyrazin-3-yl]-amine], the “EGFR (L858R) growth restoration” value in experiment [1] is listed as “+”. In addition, in experiment [2], the CSF-1R growth restoration entry was “−”.

As for `CC(=O)Nc1ccc(-c2nc3cnccn3c2Nc2cccc(Cl)c2)cc1` [compound 8, N-{4-[3-(3-Chloro-phenylamino)-imidazo[1,2-a]pyrazin-2-yl]-phenyl}-acetamide], the “EGFR (L858R) growth restoration” value in experiment [3] is “(+)”. Take `Nc1ccc(-c2nc3cnccn3c2Nc2cccc(Cl)c2)cc1` [compound 10, [2-(4-Amino-phenyl)-imidazo[1,2-a]pyrazin-3-yl]-(3-chloro-phenyl)-amine]: in experiment [3], the “EGFR (L858R) growth restoration” value is “(+)”. Turning to `CC(C)c1nc2cnccn2c1Nc1cccc(Cl)c1` [compound 12, (3-Chloro-phenyl)-(2-isopropyl-imidazo[1,2-a]pyrazin-3-yl)-amine], in experiment [3], the “EGFR (L858R) growth restoration” value is “(+)”. Turning to `Brc1cccc(Nc2c(-c3ccccc3)nc3cnccn23)c1` [compound 14, (3-Bromo-phenyl)-(2-phenyl-imidazo[1,2-a]pyrazin-3-yl)-amine], the “EGFR (L858R) growth restoration” value in experiment [1] is given as “−”. In addition, the CSF-1R growth restoration result in experiment [2] is “−”. Turning to `Clc1ccc(Nc2c(-c3ccccc3)nc3cnccn23)cc1` [compound 16, (4-Chloro-phenyl)-(2-phenyl-imidazo[1,2-a]pyrazin-3-yl)-amine], the “EGFR (L858R) growth restoration” value in experiment [1] is “−”. Also, in experiment [2], the CSF-1R growth restoration result is listed as “−”. On to `c1ccc(Nc2c(-c3ccccc3)nc3cnccn23)cc1` [compound 23, Phenyl-(2-phenyl-imidazo[1,2-a]pyrazin-3-yl)-amine], for which the “EGFR (L858R) growth restoration” value in experiment [1] is on record as “+”. Also, the CSF-1R growth restoration result in experiment [2] is reported as “−”. Take `Fc1cccc(Nc2c(-c3ccccc3)nc3cnccn23)c1` [compound 26, (3-Fluoro-phenyl)-(2-phenyl-imidazo[1,2-a]pyrazin-3-yl)-amine]: the “EGFR (L858R) growth restoration” value in experiment [3] is “(+)”. Take `Fc1ccc(Nc2c(-c3ccccc3)nc3cnccn23)cc1F` [compound 30, (3,4-Difluoro-phenyl)-(2-phenyl-imidazo[1,2-a]pyrazin-3-yl)-amine]: the “EGFR (L858R) growth restoration” value in experiment [3] is given as “(+)”. The same measure, in the same setting: with `CC(=O)Nc1ccc(-c2nc3c(C)nccn3c2Nc2cccc(Cl)c2)cc1` [compound 33, N-{4-[3-(3-Chloro-phenylamino)-8-methyl-imidazo[1,2-a]pyrazin-2-yl]-phenyl}-acetamide] the entry was “(+)”. Take `Cc1cccc(Nc2c(-c3ccccc3)nc3cnccn23)c1` [compound 34, (2-Phenyl-imidazo[1,2-a]pyrazin-3-yl)-m-tolyl-amine]: the “EGFR (L858R) growth restoration” value in experiment [1] is given as “−”. Besides, the CSF-1R growth restoration entry in experiment [2] is “−”. On to `Clc1cccc(Nc2c(-c3ccccc3)nc3cnccn23)c1` [compound 35, (3-Chloro-phenyl)-(2-phenyl-imidazo[1,2-a]pyrazin-3-yl)-amine], for which the “EGFR (L858R) growth restoration” value in experiment [1] is on record as “+”. Also, the CSF-1R growth restoration result in experiment [2] is “−”. Turning to `c1ccc(Nc2c(-c3ccc(N4CCOCC4)cc3)nc3cnccn23)cc1` [compound 38, [2-(4-Morpholin-4-yl-phenyl)-imidazo[1,2-a]pyrazin-3-yl]-phenyl-amine], the “EGFR (L858R) growth restoration” value in experiment [3] was “(+)”. `Cc1nccn2c(Nc3ccccc3)c(-c3ccccc3)nc12` [compound 39, (8-Methyl-2-phenyl-imidazo[1,2-a]pyrazin-3-yl)-phenyl-amine]: the “EGFR (L858R) growth restoration” value in experiment [1] is “+”. The CSF-1R growth restoration result in experiment [2] was “−”. `COc1cccc(-c2nc3c(C)nccn3c2Nc2cccc(C)c2)c1` [compound 42, [2-(3-Methoxy-phenyl)-8-methyl-imidazo[1,2-a]pyrazin-3-yl]-m-tolyl-amine]: the “EGFR (L858R) growth restoration” value in experiment [3] is recorded as “(+)”. Regarding `Cc1cccc(Nc2c(-c3ccccc3)nc3c(C)nccn23)c1` [compound 43, (8-Methyl-2-phenyl-imidazo[1,2-a]pyrazin-3-yl)-m-tolyl-amine], the “EGFR (L858R) growth restoration” value in experiment [1] is “−”. Also, the CSF-1R growth restoration result in experiment [2] is listed as “−”. Regarding `Cc1nccn2c(Nc3cccc(F)c3)c(-c3ccccc3)nc12` [compound 44, (3-Fluoro-phenyl)-(8-methyl-2-phenyl-imidazo[1,2-a]pyrazin-3-yl)-amine], the “EGFR (L858R) growth restoration” value in experiment [1] is recorded as “+”. Also, the CSF-1R growth restoration entry in experiment [2] is recorded as “−”. For the molecule `Cc1nccn2c(Nc3ccc(F)c(F)c3)c(-c3ccccc3)nc12` [compound 45, (3,4-Difluoro-phenyl)-(8-methyl-2-phenyl-imidazo[1,2-a]pyrazin-3-yl)-amine], the “EGFR (L858R) growth restoration” value in experiment [1] is “−”. In addition, the CSF-1R growth restoration entry in experiment [2] was “−”. As for `COc1cccc(-c2nc3c(C)nccn3c2Nc2cccc(Cl)c2)c1` [compound 48, (3-Chloro-phenyl)-[2-(3-methoxy-phenyl)-8-methyl-imidazo[1,2-a]pyrazin-3-yl]-amine], the “EGFR (L858R) growth restoration” value in experiment [3] is given as “(+)”.
